In article PMC5896380, “Selective imaging of cathepsin L in breast cancer by fluorescent activity-based probes” (Chemical Science, 2018):
Non-standard residues stand in square brackets, D forms with d. *: point of attachment. Phe(3,4-Cl2) = N[C@@H](Cc1ccc(Cl)c(Cl)c1)C(=O)O; Phe(F5) = N[C@@H](Cc1c(F)c(F)c(F)c(F)c1F)C(=O)O; Phe(3,4-F2) = N[C@@H](Cc1ccc(F)c(F)c1)C(=O)O; Phe(2-Cl) = N[C@@H](Cc1ccccc1Cl)C(=O)O; Phe(4-F) = N[C@@H](Cc1ccc(F)cc1)C(=O)O; Phe(2-F) = N[C@@H](Cc1ccccc1F)C(=O)O; ACC = NC(=O)Cc1cc(=O)oc2cc(N*)ccc12; Met(O) = CS(=O)CC[C@H](N)C(=O)O; Tic = O=C(O)[C@@H]1Cc2ccccc2CN1; dOrn = NCCC[C@@H](N)C(=O)O; Orn = NCCC[C@H](N)C(=O)O; Dab = NCC[C@H](N)C(=O)O

What was measured:
Assay type in all cases: biochemical
cathepsin B [1] = target: T1, cathepsin B (Homo sapiens, UniProt P07858); assay: Substrate selectivity screening, rate of hydrolysis, cathepsin B; details: Table S4; substrate 100µM, cathepsin 5nM; pH 5.5, 37 °C; average of at least three screenings
T1 construct: made in house
Description: (§1) All kinetic experiments were performed using fMax (Molecular Devices) and CLARIOStar (BMG LABTECH) spectrofluorimeters operating in kinetic mode using 96-well plates. ACC-labeled substrates were screened using 355 nm and 460 nm wavelengths (excitation and emission, respectively). […] The buffer was prepared at room temperature and the enzyme kinetic studies were performed at 37 °C.
(§2) All potentially selective cathepsin L substrates were tested for their selectivity against a panel of five different cathepsins, containing cathepsins L, V, S, K and […], at concentrations of 2 μM and 100 μM. To obtain reliable results the concentration of each cathepsin was 5 nM. Substrate hydrolysis was carried out for 10 min (for cathepsin L) and for up to 60 min (for other cathepsins). Hydrolysis rates (RFU s^–1) are presented as average values from at least three screenings.

cathepsin K [2] = target: T2, cathepsin K (Homo sapiens, UniProt P43235); assay: Substrate selectivity screening, rate of hydrolysis, cathepsin K; details: Table S4; substrate 100µM, cathepsin 5nM; pH 5.5, 37 °C; average of at least three screenings
T2 construct: made in house
T2 sequence (P43235 115-329): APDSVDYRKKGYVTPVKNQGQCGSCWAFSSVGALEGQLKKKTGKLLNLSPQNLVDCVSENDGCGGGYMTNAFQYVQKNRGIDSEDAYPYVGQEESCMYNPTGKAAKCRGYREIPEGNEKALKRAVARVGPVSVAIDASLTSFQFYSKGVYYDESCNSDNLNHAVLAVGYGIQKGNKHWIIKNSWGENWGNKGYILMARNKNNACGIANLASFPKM
Description: as §1, §2

cathepsin L [3] = target: T3, cathepsin L (Homo sapiens, UniProt P07711); assay: Substrate selectivity screening, rate of hydrolysis, cathepsin L; details: Table S4; substrate 100µM, cathepsin 5nM; pH 5.5, 37 °C; average of at least three screenings
T3 construct: made in house
T3 sequence (P07711 114-333): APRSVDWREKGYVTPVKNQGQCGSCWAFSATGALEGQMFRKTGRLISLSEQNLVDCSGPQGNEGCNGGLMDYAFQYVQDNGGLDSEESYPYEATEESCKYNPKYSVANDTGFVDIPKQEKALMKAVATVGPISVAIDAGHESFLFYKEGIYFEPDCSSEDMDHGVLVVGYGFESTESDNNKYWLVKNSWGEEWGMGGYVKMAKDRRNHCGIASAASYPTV
Description: as §1, §2

cathepsin S [4] = target: T4, cathepsin S (Homo sapiens, UniProt P25774); assay: Substrate selectivity screening, rate of hydrolysis, cathepsin S; details: Table S4; substrate 100µM, cathepsin 5nM; pH 5.5, 37 °C; average of at least three screenings
T4 construct: made in house
T4 sequence (P25774 115-331): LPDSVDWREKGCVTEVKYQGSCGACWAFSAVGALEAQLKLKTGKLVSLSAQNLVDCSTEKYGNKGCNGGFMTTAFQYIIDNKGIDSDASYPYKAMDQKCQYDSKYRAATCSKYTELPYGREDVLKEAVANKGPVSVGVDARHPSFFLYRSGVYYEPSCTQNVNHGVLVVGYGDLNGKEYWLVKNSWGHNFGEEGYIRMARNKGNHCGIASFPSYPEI
Description: as §1, §2

cathepsin V [5] = target: T5, cathepsin V (Homo sapiens, UniProt O60911); assay: Substrate selectivity screening, rate of hydrolysis, cathepsin V; details: Table S4; substrate 100µM, cathepsin 5nM; pH 5.5, 37 °C; average of at least three screenings
T5 construct: made in house
T5 sequence (O60911 114-334): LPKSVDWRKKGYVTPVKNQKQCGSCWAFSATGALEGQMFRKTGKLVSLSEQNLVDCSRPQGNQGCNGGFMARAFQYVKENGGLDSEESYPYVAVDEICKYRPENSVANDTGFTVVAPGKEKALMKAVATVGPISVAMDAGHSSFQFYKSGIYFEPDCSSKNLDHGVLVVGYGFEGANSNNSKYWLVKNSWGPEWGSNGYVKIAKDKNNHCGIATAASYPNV
Description: as §1, §2

cathepsin L [6] = target: T3, cathepsin L; assay: Kinetic parameters of ACC substrates with cathepsin L; details: pH 5.5, 37 °C, cathepsin L 0.1–0.5 nM, SD below 15%
Description: as §1
(§3) Classic substrate velocity plots were analyzed according to Michaelis–Menten kinetics and a detailed protocol for the determination of kinetic parameters for ACC-tagged substrates is found elsewhere.[56] […] Experiments were repeated at least three times and results are presented as an average. The SDs were below 15%.

cathepsin V [7] = target: T5, cathepsin V; assay: Kinetic parameters of ACC substrates with cathepsin V; details: Fig. 5B; pH 5.5, 37 °C; cathepsin V 10–20 nM; triplicate, SD below 15%
Description: as §1, §3

cathepsin B [8] = target: T1, cathepsin B; assay: Kinetic parameters of ACC substrates with cathepsin B; details: Fig. 5B; pH 5.5, 37 °C; cathepsin B 4–15 nM; triplicate, SD below 15%
Description: as §1, §3

cathepsin K [9] = target: T2, cathepsin K; assay: Kinetic parameters of ACC substrates with cathepsin K; details: Fig. 5B; pH 5.5, 37 °C; cathepsin K 5–20 nM; triplicate, SD below 15%
Description: as §1, §3

cathepsin S [10] = target: T4, cathepsin S; assay: Kinetic parameters of ACC substrates with cathepsin S; details: Fig. 5B; pH 5.5, 37 °C; cathepsin S 5–20 nM; triplicate, SD below 15%
Description: as §1, §3

cathepsin L [11] = target: T3, cathepsin L; assay: kobs/I of activity-based probes, cathepsin L; details: Fig. 6A; pseudo-first order, probe at least 5-fold excess over cathepsin, 100 μM ACC substrate; pH 5.5, 37 °C; triplicate, SD below 20%
Description: as §1
(§4) For the kinetic studies, five recombinant human cathepsins (B, L, V, K and S) were expressed and purified and active site titrated using an E64 inhibitor. The kobs/I parameter was measured under pseudo-first order kinetic conditions, as described.[40] The cathepsin of interest was mixed with various concentrations of probe (at least 5-fold excess over cathepsin) and 100 μM ACC-fluorescence substrate. The experiments were repeated at least three times, and the results are presented as an average. The SDs were below 20%.

cathepsin V [12] = target: T5, cathepsin V; assay: kobs/I of activity-based probes, cathepsin V; details: Fig. 6A; pseudo-first order, probe at least 5-fold excess over cathepsin, 100 μM ACC substrate; pH 5.5, 37 °C; triplicate, SD below 20%
Description: as §1, §4

cathepsin B [13] = target: T1, cathepsin B; assay: kobs/I of activity-based probes, cathepsin B; details: Fig. 6A; pseudo-first order, probe at least 5-fold excess over cathepsin, 100 μM ACC substrate; pH 5.5, 37 °C; triplicate, SD below 20%
Description: as §1, §4

cathepsin S [14] = target: T4, cathepsin S; assay: kobs/I of activity-based probes, cathepsin S; details: Fig. 6A; pseudo-first order, probe at least 5-fold excess over cathepsin, 100 μM ACC substrate; pH 5.5, 37 °C; triplicate, SD below 20%
Description: as §1, §4

cathepsin K [15] = target: T2, cathepsin K; assay: kobs/I of activity-based probes, cathepsin K; details: Fig. 6A; pseudo-first order, probe at least 5-fold excess over cathepsin, 100 μM ACC substrate; pH 5.5, 37 °C; triplicate, SD below 20%
Description: as §1, §4

Row | Substance | Relative substrate activity (rate of hydrolysis), cathepsin B (cathepsin B [1]) [RFU/s] | Relative substrate activity (rate of hydrolysis), cathepsin K (cathepsin K [2]) [RFU/s] | Relative substrate activity (rate of hydrolysis), cathepsin L (cathepsin L [3]) [RFU/s] | Relative substrate activity (rate of hydrolysis), cathepsin S (cathepsin S [4]) [RFU/s] | Relative substrate activity (rate of hydrolysis), cathepsin V (cathepsin V [5]) [RFU/s] | also measured
1 | Ac-H[dL][Phe(3,4-Cl2)]R-{ACC} (SMILES CC(=O)N[C@@H](Cc1c[nH]cn1)C(=O)N[C@H](CC(C)C)C(=O)N[C@@H](Cc1ccc(Cl)c(Cl)c1)C(=O)N[C@@H](CCCNC(=N)N)C(=O)Nc1ccc2c(CC(N)=O)cc(=O)oc2c1) | 65.1 | 1.5 | 901 | 4.4 | 306 | 
2 | Ac-H[dV][Phe(F5)]R-{ACC} (SMILES CC(=O)N[C@@H](Cc1c[nH]cn1)C(=O)N[C@@H](C(=O)N[C@@H](Cc1c(F)c(F)c(F)c(F)c1F)C(=O)N[C@@H](CCCNC(=N)N)C(=O)Nc1ccc2c(CC(N)=O)cc(=O)oc2c1)C(C)C) | 0.7 | 1.1 | 706 | 0.0 | 4.4 | kcat/KM Cath-L (cathepsin L [6]; Fig. 5B, triplicate): 747,400 M^-1s^-1; kcat/KM Cath-V (cathepsin V [7]): 539 M⁻¹ s⁻¹; kcat/KM Cath-B (cathepsin B [8]): 252 M⁻¹ s⁻¹; kcat/KM Cath-K (cathepsin K [9]): < 10 M⁻¹ s⁻¹; kcat/KM Cath-S (cathepsin S [10]): < 10 M⁻¹ s⁻¹
3 | Ac-H[dL][Phe(F5)][Orn]-{ACC} (SMILES CC(=O)N[C@@H](Cc1c[nH]cn1)C(=O)N[C@H](CC(C)C)C(=O)N[C@@H](Cc1c(F)c(F)c(F)c(F)c1F)C(=O)N[C@@H](CCCN)C(=O)Nc1ccc2c(CC(N)=O)cc(=O)oc2c1) | 0.0 | 0.3 | 153 | 0.0 | 0.0 | 
4 | Ac-[Tic][Orn][Phe(4-F)]L-{ACC} (SMILES CC(=O)N1Cc2ccccc2C[C@H]1C(=O)N[C@@H](CCCN)C(=O)N[C@@H](Cc1ccc(F)cc1)C(=O)N[C@@H](CC(C)C)C(=O)Nc1ccc2c(CC(N)=O)cc(=O)oc2c1) | 15.0 | 0.0 | 684 | 4.7 | 31.7 | 
5 | BODIPYFL-6-ahx-Ala-Arg-Leu-Arg-AOMK [MP-pc2, BDPFL-6-ahx-Ala-Arg-Leu-Arg-AOMK, BODIPY-FL-labeled pan-cathepsin probe] |  |  |  |  |  | kobs/I Cath-L (cathepsin L [11]): 8,200 M^-1s^-1; kobs/I Cath-V (cathepsin V [12]): 9,800 M^-1s^-1; kobs/I Cath-B (cathepsin B [13]): 23,200 M^-1s^-1; kobs/I Cath-S (cathepsin S [14]): 18,500 M^-1s^-1; kobs/I Cath-K (cathepsin K [15]): 350 M⁻¹ s⁻¹
6 | Ac-[Tic][Dab][Phe(3,4-F2)]R-{ACC} (SMILES CC(=O)N1Cc2ccccc2C[C@H]1C(=O)N[C@@H](CCN)C(=O)N[C@@H](Cc1ccc(F)c(F)c1)C(=O)N[C@@H](CCCNC(=N)N)C(=O)Nc1ccc2c(CC(N)=O)cc(=O)oc2c1) | 41.2 | 0.2 | 825 | 2.8 | 28.4 | 
7 | Ac-HRFR-{ACC} (SMILES CC(=O)N[C@@H](Cc1c[nH]cn1)C(=O)N[C@@H](CCCNC(=N)N)C(=O)N[C@@H](Cc1ccccc1)C(=O)N[C@@H](CCCNC(=N)N)C(=O)Nc1ccc2c(CC(N)=O)cc(=O)oc2c1) [reference compound] | 272 | 24.5 | 875 | 40.3 | 224 | kcat/KM (cathepsin L [6]; Fig. 4B, ACC substrates, 100 mM sodium acetate, 100 mM NaCl, 10 mM DTT, 1 mM EDTA, average of at least three): 13,050,000 M^-1s^-1
8 | Ac-[Met(O)][dR][Phe(2-F)]R-{ACC} (SMILES CC(=O)N[C@@H](CCS(C)=O)C(=O)N[C@H](CCCNC(=N)N)C(=O)N[C@@H](Cc1ccccc1F)C(=O)N[C@@H](CCCNC(=N)N)C(=O)Nc1ccc2c(CC(N)=O)cc(=O)oc2c1) | 76.2 | 0.2 | 658 | 21.1 | 129 | 
9 | Ac-[Tic][dOrn][Phe(2-Cl)]K-{ACC} (SMILES CC(=O)N1Cc2ccccc2C[C@H]1C(=O)N[C@H](CCCN)C(=O)N[C@@H](Cc1ccccc1Cl)C(=O)N[C@@H](CCCCN)C(=O)Nc1ccc2c(CC(N)=O)cc(=O)oc2c1) [Tic-DArg-Phe(2-Cl)-Lys] | 3.1 | 0.0 | 134 | 10.3 | 36.1 | 
10 | Ac-Pip-DLeu-Phe(3,4-F2)-Arg-ACC | 9.4 | 1.2 | 699 | 7.8 | 103 | 
11 | Ac-A[Orn][Phe(3,4-Cl2)]R-{ACC} (SMILES CC(=O)N[C@@H](C)C(=O)N[C@@H](CCCN)C(=O)N[C@@H](Cc1ccc(Cl)c(Cl)c1)C(=O)N[C@@H](CCCNC(=N)N)C(=O)Nc1ccc2c(CC(N)=O)cc(=O)oc2c1) | 189 | 4.6 | 844 | 3.4 | 346 | 
12 | Ac-H[dR][Phe(3,4-F2)]L-{ACC} (SMILES CC(=O)N[C@@H](Cc1c[nH]cn1)C(=O)N[C@H](CCCNC(=N)N)C(=O)N[C@@H](Cc1ccc(F)c(F)c1)C(=O)N[C@@H](CC(C)C)C(=O)Nc1ccc2c(CC(N)=O)cc(=O)oc2c1) | 22.3 | 0.0 | 474 | 12.7 | 30.5 | 
13 | Ac-A[dK]K(Ac)R-{ACC} (SMILES CC(=O)NCCCC[C@H](NC(=O)[C@@H](CCCCN)NC(=O)[C@H](C)NC(C)=O)C(=O)N[C@@H](CCCNC(=N)N)C(=O)Nc1ccc2c(CC(N)=O)cc(=O)oc2c1) | 16.9 | 1.2 | 25.3 | 0.0 | 0.0 | 
